One test deals with T1, human 5HT6 (Homo sapiens, UniProt P50406).
T1 construct: expressed in transfected cells
Kind of test: Radioligand binding, 5-HT6 receptor. To be noted: for Ki: Table 7, read-out: h5HT6 Ki; for selectivity ratio h5HT6: Table 8, Ki h5HT6 divided by Ki hGAL3. The method, then:
Other 5-HT Receptors: Other serotonin receptor binding assays were performed according to published methods: rat 5HT2C receptor (Julius et al., 1988); and 5-HT6 (Monsma, et al., 1993). The binding assays using the 5-HT4 receptor were performed according to the procedures described in U.S. Patent No. 5,766,879, the disclosure of which is hereby incorporated by reference in its entirety into this application.
(§1) Binding data were analyzed using nonlinear regression and statistical techniques available in the GraphPAD Prism package (San Diego, CA). Enzymatic assay data were derived from a standard curve of reference compound data.

Another test concerns the target T2, human GAL2 receptor (Homo sapiens, UniProt O43603).
T2 construct: expressed in transfected cells
T2 sequence (O43603 1-387): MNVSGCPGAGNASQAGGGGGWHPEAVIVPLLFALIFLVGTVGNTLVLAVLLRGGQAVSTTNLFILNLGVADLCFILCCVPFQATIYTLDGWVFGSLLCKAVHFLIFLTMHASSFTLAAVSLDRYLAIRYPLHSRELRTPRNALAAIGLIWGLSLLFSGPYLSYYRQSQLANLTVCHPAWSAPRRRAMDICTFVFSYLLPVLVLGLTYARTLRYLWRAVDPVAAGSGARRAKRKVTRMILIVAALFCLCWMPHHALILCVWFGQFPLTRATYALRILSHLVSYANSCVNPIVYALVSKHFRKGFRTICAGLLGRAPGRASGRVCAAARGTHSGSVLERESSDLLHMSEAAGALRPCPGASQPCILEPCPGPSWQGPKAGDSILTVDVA
Kind of test: Radioligand binding at cloned human GAL2 receptor. The conditions noted are these: read-out: Ki GalR2. A digest of the protocol: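 Membranes from CHO cells stably expressing human GAL2 and LM(tk-) cells stably expressing human GAL1, resuspended in binding buffer (10 mM NaCl, 20 mM HEPES, pH 7.4). Binding data fitted by nonlinear regression.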

In a further test the target is T3, human α2C adrenoceptor (Homo sapiens, UniProt P18825).
T3 construct: expressed in transfected cells
T3 sequence (P18825 1-462): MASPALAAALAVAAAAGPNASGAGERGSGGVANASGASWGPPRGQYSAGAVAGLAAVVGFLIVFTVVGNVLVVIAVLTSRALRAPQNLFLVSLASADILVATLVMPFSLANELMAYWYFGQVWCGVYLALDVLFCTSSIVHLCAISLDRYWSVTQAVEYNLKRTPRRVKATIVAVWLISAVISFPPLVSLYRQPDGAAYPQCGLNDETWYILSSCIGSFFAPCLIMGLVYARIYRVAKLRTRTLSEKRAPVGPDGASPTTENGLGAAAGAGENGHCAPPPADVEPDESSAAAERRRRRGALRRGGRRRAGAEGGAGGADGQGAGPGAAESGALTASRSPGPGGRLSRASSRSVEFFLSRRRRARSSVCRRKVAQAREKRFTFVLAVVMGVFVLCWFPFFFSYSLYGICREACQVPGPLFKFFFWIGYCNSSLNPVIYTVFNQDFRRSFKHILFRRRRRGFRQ
Kind of test: Radioligand binding, α2C adrenergic receptor. The conditions noted are these: for Ki: Table 9, read-out: hα2C Ki; for selectivity ratio hα2C: Table 10, Ki hα2C divided by Ki hGAL3.
From the text: (§2) Other receptors: Cell membranes expressing human dopamine D1, D2, D4 and rat D3 receptors were purchased through BioSignal, Inc. (Montreal, Canada). Binding assays using the histamine H1 receptor; dopamine receptors; and α1A, α1E, and α2 adrenergic receptors may be carried out according to the procedures described in U.S. Patent No. 5,780,485, the disclosure of which is hereby incorporated by reference in its entirety into this application. Binding assays using the dopamine D5 receptor may be carried out according to the procedures described in U.S. Patent No. 5,882,855, the disclosure of which is hereby incorporated by reference in its entirety into this application. Binding assays for the human α1D adrenergic receptor may be carried out according to the procedures described in U.S. Patent No. 6,156,518, the disclosure of which is hereby incorporated by reference in its entirety into this application.
as §1

Another test has as its target T4, human 5HT1E (Homo sapiens, UniProt P28566).
T4 construct: expressed in transfected cells
Kind of test: Radioligand binding, 5HT1E receptor ([3H]-serotonin). The conditions noted are these: for Ki: Table 7, read-out: h5HT1E Ki; for selectivity ratio h5HT1E: Table 8, Ki h5HT1E divided by Ki hGAL3. How it is done: Human 5HT1B, 5HT1D, 5HT1E, 5HT1F, and 5HT7 Receptors: The cell lysates of LM(tk-) clonal cell line stably transfected with the genes encoding each of these 5HT receptor-subtypes were prepared as described above. Cell membranes were suspended in 50mM Tris-HCl buffer (pH 7.4 at 37°C) containing 10 mM MgCl2, 0.2 mM EDTA, 10 µM pargyline, and 0.1% ascorbate. […] Nonspecific binding was determined in the presence of 10 µM serotonin. The bound radioligand was separated by filtration through GF/B filters using a cell harvester.
as §1

A further test concerns the target T5, human dopamine D2 (Homo sapiens, UniProt P14416).
T5 construct: purchased BioSignal, Inc. (Montreal, Canada)
Kind of test: Radioligand binding, dopamine D2 receptor. To be noted: for Ki: Table 9, read-out: hD2 Ki; for selectivity ratio hD2: Table 10, Ki hD2 divided by Ki hGAL3.
From the text: as §2, §1

Molecules are shown by their SMILES. Read-outs that look alike come from different tables or passages of the source. Bounds are passed on as bounds.

As a reminder, the Ki is the equilibrium dissociation constant of an inhibitor or competing ligand from its target.

T4 sequence (P28566 whole entry): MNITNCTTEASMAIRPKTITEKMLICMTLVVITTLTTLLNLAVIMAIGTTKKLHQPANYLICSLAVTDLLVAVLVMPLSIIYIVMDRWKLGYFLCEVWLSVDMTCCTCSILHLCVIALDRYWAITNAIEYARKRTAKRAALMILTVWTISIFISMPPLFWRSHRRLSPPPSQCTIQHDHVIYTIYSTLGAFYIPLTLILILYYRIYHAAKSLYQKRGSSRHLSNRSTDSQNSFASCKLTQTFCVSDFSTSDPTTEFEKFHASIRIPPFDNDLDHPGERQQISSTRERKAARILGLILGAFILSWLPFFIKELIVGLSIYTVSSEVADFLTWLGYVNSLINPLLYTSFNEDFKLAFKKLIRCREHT
T1 sequence (P50406 whole entry): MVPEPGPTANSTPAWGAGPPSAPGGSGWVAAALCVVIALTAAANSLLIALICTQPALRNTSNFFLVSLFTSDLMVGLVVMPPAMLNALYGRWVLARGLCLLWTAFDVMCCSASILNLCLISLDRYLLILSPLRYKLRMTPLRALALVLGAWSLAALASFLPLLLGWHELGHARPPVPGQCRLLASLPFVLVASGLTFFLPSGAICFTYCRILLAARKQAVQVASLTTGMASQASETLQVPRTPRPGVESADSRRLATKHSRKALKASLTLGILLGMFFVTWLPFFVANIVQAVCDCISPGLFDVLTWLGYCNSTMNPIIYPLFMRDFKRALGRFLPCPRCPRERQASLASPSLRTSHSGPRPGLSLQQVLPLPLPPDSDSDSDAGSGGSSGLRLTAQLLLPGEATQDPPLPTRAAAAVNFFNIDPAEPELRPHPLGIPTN
T5 sequence (P14416 whole entry): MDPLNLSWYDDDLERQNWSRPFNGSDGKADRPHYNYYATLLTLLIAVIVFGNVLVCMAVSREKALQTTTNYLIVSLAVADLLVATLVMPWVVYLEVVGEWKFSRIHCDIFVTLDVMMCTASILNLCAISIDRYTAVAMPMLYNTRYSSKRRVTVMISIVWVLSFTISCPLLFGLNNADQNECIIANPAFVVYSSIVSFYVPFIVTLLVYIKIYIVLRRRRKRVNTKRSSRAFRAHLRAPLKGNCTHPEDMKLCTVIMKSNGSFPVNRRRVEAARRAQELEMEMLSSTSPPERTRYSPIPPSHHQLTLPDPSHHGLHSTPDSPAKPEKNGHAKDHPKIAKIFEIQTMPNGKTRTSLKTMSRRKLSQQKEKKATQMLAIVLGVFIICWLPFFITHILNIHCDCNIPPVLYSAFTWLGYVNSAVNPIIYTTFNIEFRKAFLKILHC

Take `Cc1ccc(Nc2cc(N(C)C)nc(N(C)CCc3c[nH]c4ccccc34)n2)cc1` [Example 77]: at human 5HT6, the Ki is 0.503 µM and the “selectivity ratio h5HT6” value is reported as 6. The inhibition constant Ki at human GAL2 receptor (pyrimidines) was determined as 0.709 µM. On human α2C adrenoceptor, the Ki came out at 0.634 µM and the “selectivity ratio hα2C” value was 8. In addition, on human 5HT1E, the Ki amounted to 5.89 µM and the “selectivity ratio h5HT1E” value is more than 30. On human dopamine D2, the Ki turned out to be 0.91 µM and the “selectivity ratio hD2” value is reported as 11.
Take `O=C1C(=Nc2cccc(C(F)(F)F)c2)c2ccccc2N1c1ccccc1` [Example 92, 1-PHENYL-3- [[3-(TRIFLUOROMETHYL)PHENYL]IMINO]-1,3-DIHYDRO-2H-INDOL-2-ONE]: on human 5HT6, the “selectivity ratio h5HT6” value is more than 100. The “selectivity ratio hα2C” value on human α2C adrenoceptor is more than 100. For the same compound, the “selectivity ratio h5HT1E” value on human 5HT1E is on record as more than 100. The “selectivity ratio hD2” value on human dopamine D2 is on record as more than 100.
In the case of `O=C1C(=Nc2cccc(Cl)c2)c2ccccc2N1c1ccccc1` [Example 94, 3-[(3-CHLOROPHENYL)IMINO]-1-PHENYL-1,3-DIHYDRO-2H-INDOL-2-ONE], on human 5HT6, the Ki worked out at 3.65 µM and the “selectivity ratio h5HT6” value was more than 30. Besides, at human GAL2 receptor (indolones), the Ki is more than 10 µM. Further, at human α2C adrenoceptor, the Ki is 47.9 µM and the “selectivity ratio hα2C” value was more than 100. On human 5HT1E, the Ki came to 25.2 µM and the “selectivity ratio h5HT1E” value is reported as more than 100. For the same compound, at human dopamine D2, the Ki was found to be 6.25 µM and the “selectivity ratio hD2” value was more than 100.
Turning to `O=C1C(=Nc2ccc(C(F)(F)F)cc2)c2ccccc2N1c1ccccc1` [Example 95, 1-PHENYL-3-[[4-(TRIFLUOROMETHYL)PHENYL]IMINO]-1,3-DIHYDRO-2H-INDOL-2-ONE], on human 5HT6, the Ki was 21.5 µM and the “selectivity ratio h5HT6” value is reported as more than 100. Moreover, the Ki on human GAL2 receptor (indolones) is more than 10 µM. Besides, on human α2C adrenoceptor, the Ki stood at 48.6 µM and the “selectivity ratio hα2C” value was more than 100. On human 5HT1E, the Ki is 27.2 µM and the “selectivity ratio h5HT1E” value is more than 100. For the same compound, on human dopamine D2, the Ki is 9.72 µM and the “selectivity ratio hD2” value is more than 100.
In the case of `O=C1C(=Nc2ccc(Cl)cc2)c2ccccc2N1c1ccccc1` [Example 97, 3-[(4-CHLOROPHENYL)IMINO]-1-PHENYL-1,3-DIHYDRO-2H-INDOL-2-ONE], at human 5HT6, the Ki was 29.1 µM and the “selectivity ratio h5HT6” value is more than 100. The Ki on human GAL2 receptor (indolones) is more than 10 µM. Moreover, at human α2C adrenoceptor, the Ki was more than 50 µM and the “selectivity ratio hα2C” value was more than 100. Besides, on human 5HT1E, the Ki came to 22.7 µM and the “selectivity ratio h5HT1E” value was more than 100. Further, on human dopamine D2, the Ki is more than 50 µM and the “selectivity ratio hD2” value is more than 100.
In the case of `O=C1C(=Nc2ccc(Br)cc2)c2ccccc2N1c1ccccc1` [Example 98, 3-[(4-BROMOPHENYL)IMINO]-1-PHENYL-1,3-DIHYDRO-2H-INDOL-2-ONE], at human 5HT6, the Ki came out at 14 µM and the “selectivity ratio h5HT6” value is more than 100. Besides, the Ki on human GAL2 receptor (indolones) is more than 10 µM. For the same compound, on human α2C adrenoceptor, the Ki is more than 50 µM and the “selectivity ratio hα2C” value was more than 100. Besides, at human 5HT1E, the inhibition constant (Ki) turned out to be 16.2 µM and the “selectivity ratio h5HT1E” value is recorded as more than 100. Also, on human dopamine D2, the Ki came out at 3.79 µM and the “selectivity ratio hD2” value is listed as more than 100.
Consider `O=C1C(=Nc2cc(Cl)cc(Cl)c2)c2ccccc2N1c1ccccc1` [Example 103, 3-[(3,5-DICHLOROPHENYL)IMINO]-1-PHENYL-1,3-DIHYDRO-2H-INDOL-2-ONE], for which the Ki on human GAL2 receptor (indolones) is more than 10 µM.

The values are drawn from patent EP2140864A2 (H. Lundbeck A/S, priority 2001, dated 2002).
